These are literature values, as cited in article PMC8453635, “Piperidine Azasugars Bearing Lipophilic Chains: Stereoselective Synthesis and Biological Activity as Inhibitors of Glucocerebrosidase (GCase)” (The Journal of Organic Chemistry, 2021).

Positions count from the first letter of the chain named. Read-outs that look alike come from different tables or passages of the source.

One series deals with T1, GCase (Homo sapiens, UniProt P04062).
T1 construct: screened toward GCase in leukocytes isolated from healthy donors (controls); from tissue; host or cells: leukocytes isolated from healthy donors, disrupted by sonication
T1 sequence (P04062 40-536): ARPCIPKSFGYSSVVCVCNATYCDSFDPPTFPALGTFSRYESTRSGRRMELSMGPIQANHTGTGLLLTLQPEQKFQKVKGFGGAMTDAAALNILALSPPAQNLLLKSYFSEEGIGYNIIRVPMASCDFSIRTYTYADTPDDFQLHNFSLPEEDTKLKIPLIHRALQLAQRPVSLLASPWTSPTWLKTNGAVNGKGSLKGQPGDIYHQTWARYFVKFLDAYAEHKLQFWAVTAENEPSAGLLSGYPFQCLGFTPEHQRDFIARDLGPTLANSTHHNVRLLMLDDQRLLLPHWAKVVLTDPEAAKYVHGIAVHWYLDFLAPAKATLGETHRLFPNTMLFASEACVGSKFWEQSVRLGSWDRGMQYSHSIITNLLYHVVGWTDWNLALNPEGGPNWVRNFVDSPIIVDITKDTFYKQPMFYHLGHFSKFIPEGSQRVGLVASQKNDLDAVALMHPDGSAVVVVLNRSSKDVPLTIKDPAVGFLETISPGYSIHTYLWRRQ
As to conditions: cited from earlier work; for IC50: human leukocytes, same experimental protocol and substrate concentration.

Series [1] has as its system N370S mutant enzyme in fibroblasts. To be noted: cited from earlier work.
The subject of a further series is L444P variant. More on the design: method as in PMID 12434014. To be noted: cited from earlier work.
Another series has as its target lysosomal GCase. To be noted: toward GCase; cited from earlier work.
The next series deals with wild-type fibroblasts. More on the design: method as in PMID 32200326. As to conditions: cited from earlier work.
The target in series [2] is T2, GCase in fibroblasts bearing the N370S/RecNcil mutation (Homo sapiens, UniProt P04062, A495P/L483P/N409S).
T2 construct: fibroblasts derived from Gaucher patients bearing the N370S/RecNcil and L444P/L444P mutations; host or cells: fibroblasts from Gaucher disease patients, N370S/RecNcil
T2 sequence (P04062 40-536 N409S): T1 sequence (P04062 40-536) with N370S
The arrangement: method as in PMID 30996807, PMID 32200326. As to conditions: 100 μM; cited from earlier work.

Series [3] deals with T3, GCase in fibroblasts bearing the L444P/L444P mutations (Homo sapiens, UniProt P04062, L483P).
T3 construct: fibroblasts derived from Gaucher patients bearing the N370S/RecNcil and L444P/L444P mutations; host or cells: fibroblasts from Gaucher disease patients, L444P/L444P
T3 sequence (P04062 40-536 L483P): T1 sequence (P04062 40-536) with L444P
The arrangement: method as in PMID 30996807, PMID 32200326. As to conditions: homozygous L444P mutation, 100 μM; cited from earlier work.

As usually defined, the IC50 is the concentration that gives 50% inhibition. Regarding `CCCCCCCC[C@@H]1NC[C@@H](O)[C@@H](O)[C@@H]1O` [compound 11], the IC50 on GCase (ref 16 and 17) was 93.5 ± 5.3 µM.
Consider `CCCCCCCCCN1C[C@H](O)[C@@H](O)[C@H](O)[C@H]1CO` [compound 5, N-nonyl-DNJ], for which the “increase in the activity of the N370S mutant enzyme” value in series [1] (fibroblasts, 10 μM concentration) was “twofold increase”. For the same compound, the “enhancement of intracellular activity of the L444P variant” value in the series on L444P variant is “did not enhance”.
`CCCCCCCCC[C@H]1NC[C@@H](O)[C@H](O)[C@H]1O` [compound 7, α-1-C-nonyl-DIX]: at lysosomal GCase, the IC50 was 6.8 nM. In addition, the enzyme activity increase in series [1] (N370S mutated fibroblasts at 10 nM) was 1.8 fold.
On to `CCCCCCCCN1C[C@@H](O)C(O)[C@H](O)C1` [compound 9], for which the “GCase inhibition [%]” value on GCase (human leukocytes extracts incubated with azasugars (1 mM), previously reported compounds) is recorded as 98%. The IC50 on GCase is 30 ± 1 µM. For the same compound, the activity increase in series [1] (N370S-mutated fibroblasts at 100 μM) was 1.25 fold. The “PC activity (enzyme activity enhancement)” value in the series on wild-type fibroblasts (50 μM) is recorded as 1.5 fold.
As for `CCCCCCCC[C@H]1NC[C@@H](O)[C@@H](O)[C@@H]1O` [compound 12], on GCase (ref 16 and 17), the IC50 was 29.3 ± 1.8 µM. For the same compound, the enzyme recovery in series [2] is on record as 1.9 fold; in series [3], 1.80 fold. In addition, the “PC activity (enzyme activity enhancement)” value in the series with wild-type fibroblasts (100 μM) was 1.4 fold.
